Values after ≈ are worked out from the molar mass of the structure shown.
Tests used:
[1] = tested on: Mycobacterium tuberculosis; assay: Antimycobacterial activity against Mycobacterium tuberculosis assessed as growth inhibition incubated for 7 days by microplate alamar blue bioassay; format: functional; conditions: 168 h, time 7 day
[2] = tested on: Mycolicibacterium smegmatis; assay: Antimycobacterial activity against Mycobacterium smegmatis assessed as growth inhibition incubated for 7 days by microplate alamar blue bioassay; format: functional; conditions: 168 h, time 7 day

O=C(/C=C/C=C/c1ccc2c(c1)OCO2)N1CCCCC1 [PIPERINE]
MIC [1]: 2.62 µg/mL (≈ 9.18 µM)
MIC [2]: 1.74 µg/mL (≈ 6.1 µM)

Reference: ChEMBL document CHEMBL5226293, “Biologically Significant and Recently Isolated Alkaloids from Endophytic Fungi” (2021)
